ChEMBL document CHEMBL1152427, “Antimicrobial natural products as beta-ketoacyl-acyl carrier protein synthase III inhibitors” (Bioorg Med Chem, 2009)
Converted amounts (≈) assume the structure as drawn.

Experiments:
[1] = system: Staphylococcus aureus; assay: Antibacterial activity against methicillin-resistant Staphylococcus aureus CCARM 3114 after 20 hrs by twofold serial broth dilution method; assay type: functional; details: CCARM 3114, 20 h
[2] = system: Enterococcus faecalis; assay: Antibacterial activity against Enterococcus faecalis KCTC 2011 after 20 hrs by twofold serial broth dilution method; assay type: functional; details: KCTC 2011, 20 h
[3] = system: Staphylococcus aureus; assay: Antibacterial activity against Staphylococcus aureus KCTC 1621 after 20 hrs by twofold serial broth dilution method; assay type: functional; details: KCTC 1621, 20 h
[4] = Solubility of the compound; assay type: physicochemical
[5] = system: Escherichia coli; assay: Antibacterial activity against Escherichia coli after 20 hrs by twofold serial broth dilution method; assay type: functional
[6] = molecular target: T1, 3-oxoacyl-[acyl-carrier-protein] synthase 3 (Escherichia coli) (UniProt C3TDZ2); assay: Binding affinity to Escherichia coli KAS3 expressed in Escherichia coli BL21 (DE3) by NMR analysis
T1 sequence (whole entry): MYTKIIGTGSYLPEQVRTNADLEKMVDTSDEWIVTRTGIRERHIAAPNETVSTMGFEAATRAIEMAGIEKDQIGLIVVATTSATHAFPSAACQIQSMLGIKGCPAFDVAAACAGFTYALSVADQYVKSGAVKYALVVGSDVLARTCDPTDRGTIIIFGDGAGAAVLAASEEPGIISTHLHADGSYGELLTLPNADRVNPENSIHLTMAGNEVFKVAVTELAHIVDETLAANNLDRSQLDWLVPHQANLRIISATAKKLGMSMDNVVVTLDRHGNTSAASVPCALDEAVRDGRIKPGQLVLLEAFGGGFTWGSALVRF

[7] = system: Enterococcus faecalis; assay: Antibacterial activity against vancomycin-resistant Enterococcus faecalis clinical isolates after 20 hrs by twofold serial broth dilution method; assay type: functional
[8] = Cytotoxicity against human HaCaT cells assessed as cell survival at 16 uM after 24 hrs by MTT assay; assay type: cell-based; details: read-out: Survival
[9] = system: HaCaT; assay: Cytotoxicity against human HaCaT cells assessed as cell morphology at 100 uM after 24 hrs by phase contrast microscopy; assay type: cell-based
[10] = system: HaCaT; assay: Cytotoxicity against human HaCaT cells assessed as cell survival at 100 uM after 24 hrs by MTT assay; assay type: cell-based

Compound	MIC [1] [µM]	MIC [2] [µM]	MIC [3] [µM]	solubility [4]	MIC [5] [µM]	K [6]	MIC [7] [µM]	viability at 24 h, 16 µM [8] [%]	Activity [9]	Activity [10]
O=c1c(O)c(-c2ccccc2)oc2ccc(O)cc12	16 (≈ 4.07 µg/mL)	128 (≈ 32.5 µg/mL)	16 (≈ 4.07 µg/mL)	Insoluble	> 1020	1.32 ×10⁴ /M	256 (≈ 65.1 µg/mL)	90		
O=C(CCc1ccc(O)cc1)c1c(O)cc(O)cc1O [PHLORETIN]	16 (≈ 4.39 µg/mL)	128 (≈ 35.1 µg/mL)	32 (≈ 8.78 µg/mL)		128 (≈ 35.1 µg/mL)	2.38 ×10⁷ /M	128 (≈ 35.1 µg/mL)		Not Active	Not Active
C=C/C(C)=C/[C@@]1(C)SC(=O)C(C)=C1O [THIOLACTOMYCIN]	128 (≈ 26.9 µg/mL)	256 (≈ 53.8 µg/mL)	256 (≈ 53.8 µg/mL)		128 (≈ 26.9 µg/mL)	1.18 ×10⁴ /M	128 (≈ 26.9 µg/mL)			
COc1ccc(-c2coc3cc(O[C@@H]4O[C@H](CO)[C@@H](O)[C@@H](O)[C@@H]4O)cc(O)c3c2=O)cc1	> 1020	> 1020	> 1020		> 1020	5.6 ×10⁶ /M	> 1020			
O=c1c(O)c(-c2ccc(O)cc2)oc2ccc(O)cc12	> 1020	> 1020	> 1020		> 1020	6.22 ×10⁶ /M	> 1020			
